In article PMC8799717, “Pharmacological targeting PIKfyve and tubulin as an effective treatment strategy for double-hit lymphoma” (Cell Death Discovery, 2022):

What was measured:
Assay in all cases: biochemical
Design in all cases: KINOMEscan active-site-directed competition binding panel, 468 kinases, percent of DMSO control at 1 uM
Details in all cases: KINOMEscan binding, percent of DMSO control; read-out: Ctrl%
ACVRL1 = ACVRL1 (Homo sapiens, UniProt P37023)
PIK3CA(H1047Y) = PIK3CA(H1047Y) (Homo sapiens, UniProt P42336, H1047Y)
CAMK2B = CAMK2B (Homo sapiens, UniProt Q13554)
TBK1 = TBK1 (Homo sapiens, UniProt Q9UHD2)
HCK = HCK (Homo sapiens, UniProt P08631)
PIP5K1A = PIP5K1A (Homo sapiens, UniProt Q99755)
CDK8 = CDK8 (Homo sapiens, UniProt P49336)
HIPK4 = HIPK4 (Homo sapiens, UniProt Q8NE63)
EGFR(E746-A750del) = EGFR(E746-A750del) (Homo sapiens, UniProt P00533, DEL746-750)
MEK5 = target: T1, MEK5 (Homo sapiens, UniProt Q13163)
T1 construct: gene MAP2K5

MKNK1 = MKNK1 (Homo sapiens, UniProt Q9BUB5)
CAMKK2 = CAMKK2 (Homo sapiens, UniProt Q96RR4)
KIT(A829P) = KIT(A829P) (Homo sapiens, UniProt P10721, A829P)
STK39 = STK39 (Homo sapiens, UniProt Q9UEW8)
EPHB3 = EPHB3 (Homo sapiens, UniProt P54753)
WNK2 = WNK2 (Homo sapiens, UniProt Q9Y3S1)
VPS34 = target: T2, VPS34 (Homo sapiens, UniProt Q8NEB9)
T2 construct: gene PIK3C3

SNRK = SNRK (Homo sapiens, UniProt Q9NRH2)
FLT3(D835Y) = FLT3(D835Y) (Homo sapiens, UniProt P36888, D835Y)
CSNK2A2 = CSNK2A2 (Homo sapiens, UniProt P19784)
MST2 = target: T3, MST2 (Homo sapiens, UniProt Q13188)
T3 construct: gene STK3

TNK2 = TNK2 (Homo sapiens, UniProt Q07912)
EPHB2 = EPHB2 (Homo sapiens, UniProt P29323)
[1] = target: T4, ABL1(F317I)-nonphosphorylated (Homo sapiens, UniProt P00519, F317I)
T4 construct: nonphosphorylated
T4 sequence (P00519 whole entry F317I): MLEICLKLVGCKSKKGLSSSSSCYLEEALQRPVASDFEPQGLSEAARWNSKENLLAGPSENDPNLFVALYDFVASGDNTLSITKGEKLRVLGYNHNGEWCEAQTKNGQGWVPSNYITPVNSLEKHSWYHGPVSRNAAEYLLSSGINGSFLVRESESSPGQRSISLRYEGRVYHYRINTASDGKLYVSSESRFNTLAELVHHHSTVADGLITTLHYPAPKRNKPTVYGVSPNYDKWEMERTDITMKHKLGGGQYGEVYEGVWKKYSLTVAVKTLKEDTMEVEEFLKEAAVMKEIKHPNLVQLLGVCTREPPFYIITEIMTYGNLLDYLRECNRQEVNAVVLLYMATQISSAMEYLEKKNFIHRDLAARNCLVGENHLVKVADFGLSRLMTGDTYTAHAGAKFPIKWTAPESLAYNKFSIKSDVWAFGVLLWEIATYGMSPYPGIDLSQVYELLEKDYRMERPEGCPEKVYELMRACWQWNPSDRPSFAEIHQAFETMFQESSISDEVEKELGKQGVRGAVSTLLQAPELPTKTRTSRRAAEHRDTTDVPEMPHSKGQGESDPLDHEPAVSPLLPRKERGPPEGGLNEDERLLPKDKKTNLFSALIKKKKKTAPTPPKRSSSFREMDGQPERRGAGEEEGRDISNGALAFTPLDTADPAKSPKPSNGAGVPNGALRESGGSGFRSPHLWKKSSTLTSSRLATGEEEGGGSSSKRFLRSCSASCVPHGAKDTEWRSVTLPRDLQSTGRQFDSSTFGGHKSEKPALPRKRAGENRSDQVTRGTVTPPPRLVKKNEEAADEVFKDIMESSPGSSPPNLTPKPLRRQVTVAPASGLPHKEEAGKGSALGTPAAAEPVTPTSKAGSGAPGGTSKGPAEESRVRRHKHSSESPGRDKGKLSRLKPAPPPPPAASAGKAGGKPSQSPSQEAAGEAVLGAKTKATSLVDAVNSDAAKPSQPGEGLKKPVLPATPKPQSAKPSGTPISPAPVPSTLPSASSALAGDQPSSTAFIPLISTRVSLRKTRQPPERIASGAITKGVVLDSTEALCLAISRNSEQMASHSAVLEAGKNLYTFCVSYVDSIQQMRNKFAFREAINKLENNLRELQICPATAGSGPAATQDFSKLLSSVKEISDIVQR

Chain of PIP5K1A (Q99755 whole entry): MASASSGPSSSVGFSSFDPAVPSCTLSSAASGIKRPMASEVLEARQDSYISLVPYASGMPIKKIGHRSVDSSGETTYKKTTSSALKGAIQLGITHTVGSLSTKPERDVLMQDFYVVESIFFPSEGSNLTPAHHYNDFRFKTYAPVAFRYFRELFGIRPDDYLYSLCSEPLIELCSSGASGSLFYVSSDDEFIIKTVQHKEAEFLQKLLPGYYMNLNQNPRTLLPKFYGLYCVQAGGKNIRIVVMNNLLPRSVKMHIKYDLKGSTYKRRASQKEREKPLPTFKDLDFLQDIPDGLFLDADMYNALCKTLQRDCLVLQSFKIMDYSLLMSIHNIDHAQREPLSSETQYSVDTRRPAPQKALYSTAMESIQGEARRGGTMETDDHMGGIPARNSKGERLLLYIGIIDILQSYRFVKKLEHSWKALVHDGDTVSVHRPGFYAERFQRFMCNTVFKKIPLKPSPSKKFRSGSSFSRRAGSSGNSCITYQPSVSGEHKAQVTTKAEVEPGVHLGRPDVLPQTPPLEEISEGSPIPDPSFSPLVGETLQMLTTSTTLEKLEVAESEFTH
T1 sequence (Q13163 whole entry): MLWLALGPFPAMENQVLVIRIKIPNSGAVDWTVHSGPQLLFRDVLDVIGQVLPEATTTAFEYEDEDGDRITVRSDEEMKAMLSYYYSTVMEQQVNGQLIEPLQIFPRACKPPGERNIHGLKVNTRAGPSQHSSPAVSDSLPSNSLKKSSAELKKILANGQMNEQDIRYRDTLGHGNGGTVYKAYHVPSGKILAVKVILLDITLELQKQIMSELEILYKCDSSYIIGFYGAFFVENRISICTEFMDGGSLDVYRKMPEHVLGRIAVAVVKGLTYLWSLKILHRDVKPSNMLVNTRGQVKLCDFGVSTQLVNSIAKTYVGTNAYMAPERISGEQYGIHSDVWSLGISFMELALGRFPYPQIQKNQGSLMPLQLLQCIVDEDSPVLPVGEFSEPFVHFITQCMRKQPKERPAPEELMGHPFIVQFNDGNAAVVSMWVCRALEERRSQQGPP
T2 sequence (Q8NEB9 whole entry): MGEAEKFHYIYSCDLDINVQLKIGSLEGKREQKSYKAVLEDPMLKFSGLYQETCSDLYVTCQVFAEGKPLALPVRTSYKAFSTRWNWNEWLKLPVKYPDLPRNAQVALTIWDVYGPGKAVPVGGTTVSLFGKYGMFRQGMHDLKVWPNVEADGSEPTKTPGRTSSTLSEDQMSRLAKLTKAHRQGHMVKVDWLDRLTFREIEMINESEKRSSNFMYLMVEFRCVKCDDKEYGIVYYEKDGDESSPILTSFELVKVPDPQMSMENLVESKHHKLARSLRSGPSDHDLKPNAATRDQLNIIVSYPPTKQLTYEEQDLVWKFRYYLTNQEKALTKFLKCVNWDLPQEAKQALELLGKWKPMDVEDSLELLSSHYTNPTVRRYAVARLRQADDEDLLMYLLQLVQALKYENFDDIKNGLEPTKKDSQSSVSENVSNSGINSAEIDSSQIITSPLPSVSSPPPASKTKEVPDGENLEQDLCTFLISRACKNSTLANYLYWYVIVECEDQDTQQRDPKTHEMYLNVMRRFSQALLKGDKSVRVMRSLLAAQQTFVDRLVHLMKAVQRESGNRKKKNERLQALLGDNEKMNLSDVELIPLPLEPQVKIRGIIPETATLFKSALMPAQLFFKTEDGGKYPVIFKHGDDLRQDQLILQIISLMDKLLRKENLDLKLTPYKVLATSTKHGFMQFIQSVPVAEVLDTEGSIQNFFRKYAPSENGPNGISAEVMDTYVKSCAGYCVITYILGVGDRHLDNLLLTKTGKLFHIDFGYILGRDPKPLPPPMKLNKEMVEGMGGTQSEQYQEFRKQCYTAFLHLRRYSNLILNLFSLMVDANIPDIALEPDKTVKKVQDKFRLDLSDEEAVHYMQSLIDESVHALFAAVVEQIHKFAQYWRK
Chain of CDK8 (P49336 whole entry): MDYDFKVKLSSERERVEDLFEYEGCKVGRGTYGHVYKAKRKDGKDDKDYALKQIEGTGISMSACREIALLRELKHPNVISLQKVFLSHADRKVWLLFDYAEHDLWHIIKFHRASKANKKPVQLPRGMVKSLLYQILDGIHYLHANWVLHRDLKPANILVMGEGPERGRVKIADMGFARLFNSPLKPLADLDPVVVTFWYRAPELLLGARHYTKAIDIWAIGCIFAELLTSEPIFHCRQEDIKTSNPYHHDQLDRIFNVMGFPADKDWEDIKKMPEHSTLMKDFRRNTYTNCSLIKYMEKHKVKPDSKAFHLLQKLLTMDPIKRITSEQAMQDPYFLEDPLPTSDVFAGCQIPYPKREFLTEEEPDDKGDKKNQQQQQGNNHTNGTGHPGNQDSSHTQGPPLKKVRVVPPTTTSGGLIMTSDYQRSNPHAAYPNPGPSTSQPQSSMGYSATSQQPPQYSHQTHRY
Chain of HIPK4 (Q8NE63 whole entry): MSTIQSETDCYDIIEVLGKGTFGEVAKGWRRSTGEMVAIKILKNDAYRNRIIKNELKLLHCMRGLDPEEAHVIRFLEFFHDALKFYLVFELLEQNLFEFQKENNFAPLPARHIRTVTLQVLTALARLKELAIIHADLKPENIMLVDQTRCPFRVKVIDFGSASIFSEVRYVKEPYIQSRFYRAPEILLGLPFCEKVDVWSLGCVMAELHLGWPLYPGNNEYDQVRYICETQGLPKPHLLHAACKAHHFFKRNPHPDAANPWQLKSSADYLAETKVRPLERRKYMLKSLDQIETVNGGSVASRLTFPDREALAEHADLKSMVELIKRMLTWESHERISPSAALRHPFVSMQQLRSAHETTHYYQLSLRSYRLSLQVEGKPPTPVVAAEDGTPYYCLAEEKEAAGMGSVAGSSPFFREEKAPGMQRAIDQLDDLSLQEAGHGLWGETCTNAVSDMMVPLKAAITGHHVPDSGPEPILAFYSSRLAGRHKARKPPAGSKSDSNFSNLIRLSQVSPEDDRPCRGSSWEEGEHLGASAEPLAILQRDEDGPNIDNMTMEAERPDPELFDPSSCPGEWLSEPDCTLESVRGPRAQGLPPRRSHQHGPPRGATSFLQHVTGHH
T3 sequence (Q13188 whole entry): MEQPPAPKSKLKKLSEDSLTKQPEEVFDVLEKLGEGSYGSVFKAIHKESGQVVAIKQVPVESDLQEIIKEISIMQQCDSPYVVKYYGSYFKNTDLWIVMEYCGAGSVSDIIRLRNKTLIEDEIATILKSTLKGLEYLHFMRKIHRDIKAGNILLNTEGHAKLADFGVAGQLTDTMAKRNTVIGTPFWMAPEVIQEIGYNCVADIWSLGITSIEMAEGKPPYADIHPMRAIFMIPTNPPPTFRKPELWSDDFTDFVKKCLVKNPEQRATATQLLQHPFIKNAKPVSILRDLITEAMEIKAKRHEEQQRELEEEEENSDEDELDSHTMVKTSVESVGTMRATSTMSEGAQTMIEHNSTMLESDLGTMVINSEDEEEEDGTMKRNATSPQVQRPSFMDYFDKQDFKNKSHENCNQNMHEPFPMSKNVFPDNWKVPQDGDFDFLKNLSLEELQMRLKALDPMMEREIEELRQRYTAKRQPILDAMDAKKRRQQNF
Chain of CSNK2A2 (P19784 whole entry): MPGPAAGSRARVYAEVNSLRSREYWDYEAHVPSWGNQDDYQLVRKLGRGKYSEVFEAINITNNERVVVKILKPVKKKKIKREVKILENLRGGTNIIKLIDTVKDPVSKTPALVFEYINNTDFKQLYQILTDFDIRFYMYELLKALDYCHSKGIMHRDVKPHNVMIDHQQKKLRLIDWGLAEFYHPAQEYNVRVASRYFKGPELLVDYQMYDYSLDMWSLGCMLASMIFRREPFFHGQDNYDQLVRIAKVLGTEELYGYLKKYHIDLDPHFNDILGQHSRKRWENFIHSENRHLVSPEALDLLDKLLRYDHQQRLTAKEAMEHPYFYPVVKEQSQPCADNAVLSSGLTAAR

For Cc1ccc(NC(=O)c2cccc(C(F)(F)F)c2)cc1Nc1cc(-c2cccnc2)nc2[nH]ccc12 [HZX-02-059], the remaining binding at 1 µM (ACVRL1) was 75%, the remaining binding at 1 µM (PIK3CA(H1047Y)) was 88% and the remaining binding at 1 µM (CAMK2B) was 94%. For the same compound, the remaining binding at 1 µM (TBK1) was 100%, the remaining binding at 1 µM (HCK) was 84% and the remaining binding at 1 µM (PIP5K1A) was 79%. For the same compound, the remaining binding at 1 µM (CDK8) was 91%, the remaining binding at 1 µM (HIPK4) was 86% and the remaining binding at 1 µM (EGFR(E746-A750del)) was 90%. The remaining binding at 1 µM (MEK5) was 83%, the remaining binding at 1 µM (MKNK1) was 100% and the remaining binding at 1 µM (CAMKK2) was 93%. The remaining binding at 1 µM (KIT(A829P)) was 84%, the remaining binding at 1 µM (STK39) was 94% and the remaining binding at 1 µM (EPHB3) was 48%. The remaining binding at 1 µM (WNK2) was 100%, the remaining binding at 1 µM (VPS34) was 79% and the remaining binding at 1 µM (SNRK) was 71%. For the same compound, the remaining binding at 1 µM (FLT3(D835Y)) was 100%, the remaining binding at 1 µM (CSNK2A2) was 100% and the remaining binding at 1 µM (MST2) was 97%. For the same compound, the remaining binding at 1 µM (TNK2) was 98%, the remaining binding at 1 µM (EPHB2) was 4.7% and the remaining binding at 1 µM [1] was 40%.
